Each block holds one molecule with its values, some of them ahead of it. Ends that are not written are not given here.
What was measured:
human PCNA = human PCNA (Homo sapiens, UniProt P12004); test: Fluorescence anisotropy competition: displacement of 50 nM PL peptide from PCNA; assay type: binding; conditions: for f (hormesis parameter): f not different from 0 (95% confidence interval), no significant hormesis
BRAF = conditions: cited from earlier work
[1] = tested on: glutamine synthetase 2 (GS2); conditions: cited from earlier work
[2] = UNG2(a.a.1-19) competitor, .25 μM PCNA, hormetic curve
[3] = GS2 from chloroplasts of Lotus corniculatus

human PCNA, sequence (P12004 whole entry): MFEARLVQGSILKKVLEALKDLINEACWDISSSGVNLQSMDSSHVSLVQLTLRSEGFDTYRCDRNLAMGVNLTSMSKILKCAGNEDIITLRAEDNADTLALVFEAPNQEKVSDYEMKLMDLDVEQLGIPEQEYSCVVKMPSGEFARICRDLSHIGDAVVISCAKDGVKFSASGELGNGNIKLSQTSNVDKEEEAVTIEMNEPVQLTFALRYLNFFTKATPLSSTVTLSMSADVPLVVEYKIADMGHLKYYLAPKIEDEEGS

b (slope parameter) (human PCNA; UNG2(a.a.1-19) competitor, 1 μM PCNA, 50 nM PL peptide, hormetic curve): 1.497
b (slope parameter) (human PCNA; UNG2(a.a.1-19) competitor, 1 μM PCNA, 50 nM PL peptide, standard curve): 1.143
f (hormesis parameter) (human PCNA; UNG2(a.a.1-19) competitor, 1 μM PCNA, hormetic curve): .0044^ c
b (slope parameter) (human PCNA; UNG2(a.a.1-19) competitor, .25 μM PCNA, 50 nM PL peptide, hormetic curve): 2.798
b (slope parameter) (human PCNA; UNG2(a.a.1-19) competitor, .25 μM PCNA, 50 nM PL peptide, standard curve): 3.423
c (lower asymptote) (human PCNA; [2]): .0572
f (hormesis parameter) (human PCNA; [2]): .0013^ c
Molecule: MIGQKTLYSFFSPSPARKR [UNG2(a.a.1-19)]
displacement / hormetic response (human PCNA; UNG2(a.a.1-19), .25 and 1 μM PCNA, 50 nM PL peptide): displaced PL peptide from PCNA without a hormetic response
control: PL peptide anisotropy in the absence of PCNA (human PCNA; competitor included in the cuvette without PCNA): the fluorescence anisotropy of PL peptide was unchanged

Molecule: CC(C)(C)c1nc(-c2cccc(NS(=O)(=O)c3c(F)cccc3F)c2F)c(-c2ccnc(N)n2)s1 [dabrafenib]
mode of inhibition (BRAF): competitive with ATP

Molecule: CS(=N)(=O)CC[C@H](N)C(=O)O (stereo partly shown) [methionine sulfoximine]
mode of inhibition ([1]; GS2): competitive with glutamate and a somewhat irreversible inhibitor
GS2 activity at high methionine sulfoximine doses [1, 3]: completely inhibit the enzyme
GS2 activity at low methionine sulfoximine concentrations [1, 3]: allosteric stimulatory effect on other subunits of the octamer

From PMC9350523 (Dose-Response, 2022)
